Reference: patent US20160228575A1, “NARINGENIN COMPLEXES AND METHODS OF USE THEREOF” (THE GENERAL HOSPITAL CORPORATION, priority 2008, published 2016)
Entries after “also recorded” stand apart in the source; their conditions may differ.

Columns and labels:
ACAT2 = ACAT2 transcription by qPCR in infected Huh7.5.1 cells; assay type: cell-based, human; settings: naringenin 24 hours, infected Huh-7.5.1 cells
HMGR = HMGR transcription by qPCR in infected Huh7.5.1 cells; assay type: cell-based, human; settings: naringenin 24 hours, infected Huh-7.5.1 cells
[1] = Intraperitoneal injection of naringenin to SCID mice: survival, liver enzymes, triglycerides; assay type: in vivo
Description: Male SCID mice (8 weeks old, 20-25 g) were obtained from Charles River Laboratories (Wilmington, Mass.). Animals were treated in accordance with NIH guidelines, and MGH Subcommittee on Research Animal Care. The mice were allowed free access to laboratory chow and water ad labium. Naringenin was dissolved in 0.5% Tween 20 diluted in saline and given by intraperitoneal injection. Two days following the treatment, animals were sacrificed and blood was withdrawn by cardiac puncture. AST and ALT enzyme levels were assessed as described above. Total triglycerides were measured using a kit purchased from Sigma-Aldrich Chemicals (St. Louis, Mo.) according to the manufacturer's instructions.
To assess naringenin ability to reduce circulating vLDL levels we measured total triglycerides levels in animal plasma.

ApoB = ApoB secretion by primary human hepatocytes (human ApoB ELISA); assay type: cell-based; settings: 200 μM naringenin, 24 hours
Description: The Huh-7.5.1 human hepatoma cell line and a plasmid containing the JFH-1 genome were kindly provided by Dr. Chisari (Scripps Research Institute, CA) and Dr. Wakita (National Institute of Infectious Diseases, Tokyo) respectively. Huh-7.5.1 cells were cultured in DMEM medium supplemented with 10% FBS, 200 units/ml penicillin and […] streptomycin in a 5% CO2-humidified incubator at 37° C. In vitro transcribed genomic JFH-1 RNA was delivered to cells by liposome-mediated transfection as described by Zhong et al. (2005)(8). Infected Huh-7.5.1 cells were passaged every 3 days and used at passage <15. The presence of HCV in these cells and corresponding supernatants were determined by quantitative Polymerase Chain Reaction (qPCR) and immunofluorescence staining. Primary human hepatocytes were purchased from BD Biosciences (San Jose, Calif.) cultured on a collagen-coated 12 well plate in C+H culture media composed of DMEM supplemented with 10% heat-inactivated FBS, 200 U/mL penicillin/streptomycin, 7.5 μg/mL hydrocortisone, 20 ng/mL EGF, 14 ng/mL glucagons and 0.5 U/mL insulin. […]
Huh-7.5.1 and primary human hepatocytes secreted ApoB was detected in the media using ALerCHEK, Inc (Portland, Me.) total human ApoB ELISA kit. […]
To assess the potential of naringenin-based treatment, we measured ApoB secretion in primary human hepatocytes following 24 hours stimulation with naringenin. […]

O=C1C[C@@H](c2ccc(O)cc2)Oc2cc(O)cc(O)c21 [naringenin]
reduction of ACAT2 transcription (ACAT2): 55%±7%
reduction of HMGR transcription (HMGR): 57%±3%
ALT levels in plasma ([1]; 48 hrs following i.p. injection, all doses): no elevation
AST levels in plasma ([1]; 48 hrs following i.p. injection, even at the highest dose (1500 mg/kg)): under 100 U/l
total triglycerides in animal plasma ([1]; following i.p. naringenin injection): decrease
animal survival ([1]; intraperitoneal injection, 60, 300, 1500 mg/kg, male SCID mice): not affected; also recorded: did not cause death
decrease in ApoB secretion (ApoB): 60%±7%
